Source: patent US10993987B2 (Sublimity Therapeutics Limited, priority 2014, dated 2021)

Assays:
[1] = Example 11 emulsion stability: time point when crystallisation was observed (polarised light microscopy); format: physicochemical; conditions: for emulsion stability compared to sodium dodecyl sulfate (SDS): as aqueous phase surfactant of the cyclosporin emulsion
Procedure: Emulsions were prepared by mixing an oil phase and an aqueous phase, as described in Example 1. The oil phase was consistent for all emulsions of this example. The emulsion aqueous phase mixed was one of three aqueous mixtures. The three aqueous phases differed in the amount of surfactant, 0.7%, 1.3% and 2.5%, and water.
The emulsion was prepared by mixing the oil phase and aqueous phase in a oil:aqueous phase ratio of 1:5. The experiments were performed in triplicate, N=3. In order to replicate current manufacturing conditions as much as possible the following procedure was carried out: • Identical size beakers were used to ensure minimal variation between experiments • Identical submersible magnetic stirrers were placed in each beaker to keep the emulsions under constant magnetic stirring, and the same rpm stir rate used for each • Hot plates were used to maintain a constant emulsion temperature of 65° C. • Emulsions were kept covered with aluminium foil during the process
Sampling of the emulsion was carried out at various time points using disposable pipettes to avoid cross contamination.
(§1) Samples were withdrawn from each emulsion at half hour time intervals starting at time zero (t0) using a disposable pipette. Drops of emulsion were placed on a glass slide, pre heated on a hot plate. The sample was covered with a cover slip and a small amount of pressure applied to form a thin film of emulsion. The samples were allowed to solidify to room temperature before being viewed at ×50 and ×100 objective lens under polarised light to check for the presence of crystals. Results were recorded as optical photomicrographs with three images taken of each emulsion at each time point. Images documenting crystal growth and size with respect to time within the sample emulsion as well as background oil droplet size were collected.

[2] = Example 11 emulsion droplet size by photomicrographs; format: physicochemical
Text: as §1
Photomicrographs of the emulsions enabled the investigation of the droplet size as well as crystal formation. Smaller, more uniform droplet size was preferred.

CCCCCCCCCCCCCCCCCCOS(=O)(=O)[O-].[Na+] [Sodium n-Octadecyl Sulfate]
emulsion stability compared to sodium dodecyl sulfate (SDS) [1]: comparable to that of sodium dodecyl sulfate
emulsion stability among tested surfactants ([1]; each concentration (0.7%, 1.3%, 2.5% in aqueous phase)): best stability for each concentration
emulsion droplet characteristics (smaller, more uniform droplet size preferred) [2]: preferred droplet characteristics were observed

CCCCCCCCOS(=O)(=O)[O-].[Na+] [Sodium n-Octyl Sulfate]
emulsion stability compared to sodium dodecyl sulfate (SDS) [1]: comparable to that of sodium dodecyl sulfate
emulsion droplet characteristics (smaller, more uniform droplet size preferred) [2]: preferred droplet characteristics were observed
